Assay results taken from the supplement of paper PMC10307832.

Tests used:
Test in all cases: relative viability (nuclei count vs DMSO), 5 days (fraction); higher = more cells survive
CAP-232 + Navitoclax = compound: C[C@H]([C@@H](C(=O)N)NC(=O)[C@@H]1CSSC[C@@H](C(=O)N[C@H](C(=O)N[C@@H](C(=O)N[C@H](C(=O)N1)CCCCN)CC2=CNC3=CC=CC=C32)CC4=CC=C(C=C4)O)NC(=O)[C@@H](CC5=CC=CC=C5)N)O [CAP-232] + CC1(C)CCC(c2ccc(Cl)cc2)=C(CN2CCN(c3ccc(C(=O)NS(=O)(=O)c4ccc(N[C@H](CCN5CCOCC5)CSc5ccccc5)c(S(=O)(=O)C(F)(F)F)c4)cc3)CC2)C1 [Navitoclax] (partner 0.5 µM)
Outline: (§1)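 Relative viability equals treated-well nuclei counts divided by vehicle-well nuclei counts. Counts came from 4× images of lung cancer cell lines grown in 1536-well plates for 5 days after pin-tool dosing on the day after seeding. Dosing used one drug alone or a fixed anchor-drug dose plus five library-drug doses (not always all listed) in √10 steps, and values are medians of duplicate plates.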

CAP-232 + Foretinib = compound: C[C@H]([C@@H](C(=O)N)NC(=O)[C@@H]1CSSC[C@@H](C(=O)N[C@H](C(=O)N[C@@H](C(=O)N[C@H](C(=O)N1)CCCCN)CC2=CNC3=CC=CC=C32)CC4=CC=C(C=C4)O)NC(=O)[C@@H](CC5=CC=CC=C5)N)O [CAP-232] + COc1cc2c(Oc3ccc(NC(=O)C4(C(=O)Nc5ccc(F)cc5)CC4)cc3F)ccnc2cc1OCCCN1CCOCC1 [Foretinib] (partner 0.25 µM)
Outline: as §1

CAP-232 + Tozasertib = compound: C[C@H]([C@@H](C(=O)N)NC(=O)[C@@H]1CSSC[C@@H](C(=O)N[C@H](C(=O)N[C@@H](C(=O)N[C@H](C(=O)N1)CCCCN)CC2=CNC3=CC=CC=C32)CC4=CC=C(C=C4)O)NC(=O)[C@@H](CC5=CC=CC=C5)N)O [CAP-232] + Cc1cc(Nc2cc(N3CCN(C)CC3)nc(Sc3ccc(NC(=O)C4CC4)cc3)n2)n[nH]1 [Tozasertib] (partner 0.1 µM)
Outline: as §1

CAP-232 + Dasatinib = compound: C[C@H]([C@@H](C(=O)N)NC(=O)[C@@H]1CSSC[C@@H](C(=O)N[C@H](C(=O)N[C@@H](C(=O)N[C@H](C(=O)N1)CCCCN)CC2=CNC3=CC=CC=C32)CC4=CC=C(C=C4)O)NC(=O)[C@@H](CC5=CC=CC=C5)N)O [CAP-232] + Cc1nc(Nc2ncc(C(=O)Nc3c(C)cccc3Cl)s2)cc(N2CCN(CCO)CC2)n1 [Dasatinib] (partner 0.075 µM)
Outline: as §1

CAP-232 + Decitabine = compound: C[C@H]([C@@H](C(=O)N)NC(=O)[C@@H]1CSSC[C@@H](C(=O)N[C@H](C(=O)N[C@@H](C(=O)N[C@H](C(=O)N1)CCCCN)CC2=CNC3=CC=CC=C32)CC4=CC=C(C=C4)O)NC(=O)[C@@H](CC5=CC=CC=C5)N)O [CAP-232] + Nc1ncn([C@H]2C[C@H](O)[C@@H](CO)O2)c(=O)n1 [Decitabine] (partner 2 µM)
Outline: as §1

Row | Cell Line | relative viability (CAP-232 + Navitoclax; first compound 0.4 µM) | relative viability (CAP-232 + Navitoclax; first compound 1.265 µM) | relative viability (CAP-232 + Navitoclax; first compound 4 µM) | relative viability (CAP-232 + Navitoclax; first compound 12.65 µM) | relative viability (CAP-232 + Foretinib; first compound 0.4 µM) | relative viability (CAP-232 + Foretinib; first compound 1.265 µM) | relative viability (CAP-232 + Foretinib; first compound 4 µM) | relative viability (CAP-232 + Foretinib; first compound 12.65 µM) | relative viability (CAP-232 + Tozasertib; first compound 0.4 µM) | relative viability (CAP-232 + Tozasertib; first compound 1.265 µM) | relative viability (CAP-232 + Tozasertib; first compound 4 µM) | relative viability (CAP-232 + Tozasertib; first compound 12.65 µM) | relative viability (CAP-232 + Dasatinib; first compound 0.4 µM) | relative viability (CAP-232 + Dasatinib; first compound 1.265 µM) | relative viability (CAP-232 + Dasatinib; first compound 4 µM) | relative viability (CAP-232 + Dasatinib; first compound 12.65 µM) | relative viability (CAP-232 + Decitabine; first compound 0.4 µM) | relative viability (CAP-232 + Decitabine; first compound 1.265 µM) | relative viability (CAP-232 + Decitabine; first compound 4 µM) | relative viability (CAP-232 + Decitabine; first compound 12.65 µM)
1 | 201T | 1.23 | 1.19 | 1.12 | 1.22 | 1.17 | 1.14 | 1.03 | 0.864 | 1.04 | 0.91 | 0.979 | 0.926 | 0.536 | 0.549 | 0.614 | 0.556 | 0.842 | 0.844 | 0.817 | 0.849
2 | A549 | 1.33 | 1.19 | 1.25 | 0.482 | 1.01 | 0.998 | 0.935 | 0.369 | – | – | – | – | – | – | – | – | 0.267 | 0.212 | 0.33 | 0.239
3 | A-427 | 0.926 | 0.996 | 0.941 | 0.965 | 0.852 | 1.19 | 1.05 | 1.1 | 0.164 | 0.186 | 0.149 | 0.207 | 0.646 | 0.467 | 0.679 | 0.76 | 0.578 | 0.556 | 0.599 | 0.56
4 | ABC-1 | – | – | – | – | 0.772 | 0.876 | 1.35 | 0.677 | 0.155 | 0.143 | 0.179 | 0.148 | 0.582 | 0.562 | 0.53 | 0.448 | 1.05 | – | 0.984 | 0.887
5 | BEN | 0.0584 | 0.0704 | 0.0685 | 0.0473 | 0.776 | 0.624 | 0.595 | 0.595 | 0.413 | 0.547 | 0.387 | 0.635 | 0.39 | 0.261 | 0.264 | 0.424 | 0.792 | 0.686 | 0.742 | 0.795
6 | CAL-12T | 1.05 | 1.21 | 1.3 | 0.94 | 1.06 | 1.06 | 0.927 | 0.85 | 0.434 | 0.264 | 0.262 | 0.358 | 0.32 | 0.409 | 0.521 | 0.138 | – | – | – | –
7 | COR-L23 | 1.02 | 1.1 | 0.977 | 0.572 | 1.02 | 0.957 | 1.1 | 0.851 | 0.176 | 0.194 | 0.187 | 0.193 | 0.506 | 0.575 | 0.531 | 0.342 | 0.451 | 0.407 | 0.471 | 0.337
8 | COR-L 105 | 0.748 | 0.69 | 0.796 | 0.498 | 0.955 | 0.851 | 1.22 | 0.572 | 0.346 | 0.387 | 0.379 | 0.323 | 0.337 | 0.352 | 0.273 | 0.249 | 0.629 | 0.647 | 0.684 | 0.477
9 | ChaGo-K-1 | 1.43 | 0.818 | 0.973 | 0.734 | 0.954 | 0.779 | 0.836 | 0.912 | 0.218 | 0.237 | 0.245 | 0.213 | 0.666 | 0.611 | 0.614 | 0.506 | 0.497 | 0.542 | 0.506 | 0.547
10 | EKVX | 1.07 | 1.07 | 0.951 | 0.714 | 0.77 | 0.571 | 0.768 | 0.768 | 0.352 | 0.376 | 0.422 | 0.31 | 0.457 | 0.605 | 0.499 | 0.509 | 0.993 | 0.367 | 0.256 | 0.323
11 | EMC-BAC-2 | 1.23 | 1.25 | 1.38 | 0.935 | 1.1 | 0.953 | 1.01 | 0.907 | 0.304 | 0.276 | 0.289 | 0.247 | 0.36 | 0.31 | 0.353 | 0.28 | 0.969 | 0.963 | 0.959 | 0.972
12 | EPLC-272H | 1.37 | 1.29 | 1.17 | 0.964 | 0.661 | 0.644 | 0.659 | 0.71 | 0.25 | 0.182 | 0.288 | 0.389 | 0.402 | 0.306 | 0.321 | 0.386 | 0.348 | 0.334 | 0.344 | 0.355
13 | H3255 | 0.629 | 0.426 | 0.556 | 0.242 | 0.849 | 0.799 | 0.866 | 0.854 | 0.612 | 0.733 | 0.791 | 0.893 | 0.352 | 0.353 | 0.455 | 0.338 | 0.744 | – | 0.608 | 0.676
14 | HARA | 1.14 | 1.16 | 1.13 | 1.21 | 0.983 | 0.975 | 0.805 | 0.824 | 0.0986 | 0.0955 | 0.144 | 0.0866 | 0.266 | 0.256 | 0.305 | 0.27 | 0.526 | 0.555 | 0.523 | 0.527
15 | HCC-15 | 0.736 | 0.726 | 0.774 | 0.576 | 1.08 | 1.07 | 1.09 | 0.652 | 0.378 | 0.329 | 0.382 | 0.435 | 0.629 | 0.601 | 0.693 | 0.262 | 0.686 | 0.62 | 0.638 | 0.176
